Measurements reported in patent US12152020B2, “Pesticidally active azole-amide compounds” (SYNGENTA PARTICIPATIONS AG, priority 2018, dated 2024).

Legend:
Type in all cases: in vivo
[1] = system: Diabrotica balteata (Corn Root Worm); test: Example B1: Diabrotica balteata, maize sprouts sprayed, L2 larvae; conditions: 96 h, application rate of 200 ppm, 4 days after infestation, in comparison to untreated samples, read-out: effect in at least one of the two categories (mortality or growth inhibition)
Experimental: Example B1: Diabrotica balteata (Corn Root Worm)
Maize sprouts placed onto an agar layer in 24-well microtiter plates were treated with aqueous test solutions prepared from 10′000 ppm DMSO stock solutions by spraying. After drying, the plates were infested with L2 larvae (6 to 10 per well). The samples were assessed for mortality and growth inhibition in comparison to untreated samples 4 days after infestation.
The following compounds gave an effect of at least 80% in at least one of the two categories (mortality or growth inhibition) at an application rate of 200 ppm: • P2, P3, P4, P5, P6, P7, P8, P14, P15, P16, P17, P18, P19, P20, P21, P22, P23, P24, P25, P27, P28, P29, P30, P31, P32, P33, P34, P35

[2] = system: Euschistus heros (Neotropical Brown Stink Bug); test: Example B2: Euschistus heros, soybean leaves sprayed, N2 nymphs; conditions: 120 h, application rate of 200 ppm, 5 days after infestation, in comparison to untreated samples, read-out: effect in at least one of the two categories (mortality or growth inhibition)
Experimental: Example B2: Euschistus heros (Neotropical Brown Stink Bug)
Soybean leaves on agar in 24-well microtiter plates were sprayed with aqueous test solutions prepared from 10′000 ppm DMSO stock solutions. After drying the leaves were infested with N2 nymphs. The samples were assessed for mortality and growth inhibition in comparison to untreated samples 5 days after infestation.
The following compounds gave an effect of at least 80% in at least one of the two categories (mortality or growth inhibition) at an application rate of 200 ppm: • P1, P2, P3, P7, P11, P12, P16, P17, P18, P22, P25, P29, P32, P33, P37, P38

[3] = system: Chilo suppressalis (Striped Rice Stemborer); test: Example B4: Chilo suppressalis, artificial diet, L2 larvae; conditions: 144 h, application rate of 200 ppm, 6 days after infestation, in comparison to untreated samples, read-out: control in at least one of the categories (mortality, anti-feedant effect, or growth inhibition)
Experimental: Example B4: Chilo suppressalis (Striped Rice Stemborer)
24-well microtiter plates with artificial diet were treated with aqueous test solutions prepared from 10′000 ppm DMSO stock solutions by pipetting. After drying, the plates were infested with L2 larvae (6-8 per well). The samples were assessed for mortality, anti-feeding effect, and growth inhibition in comparison to untreated samples 6 days after infestation. Control of Chilo suppressalis by a test sample is given when at least one of the categories mortality, anti-feedant effect, and growth inhibition is higher than the untreated sample.

[4] = system: Plutella xylostella (Diamond Back Moth); test: Example B5: Plutella xylostella, artificial diet in 24-well plates, eggs; conditions: 192 h, application rate of 200 ppm, 8 days after infestation, in comparison to untreated samples, read-out: effect in at least one of the two categories (mortality or growth inhibition)
Experimental: Example B5: Plutella xylostella (Diamond Back Moth)
24-well microtiter plates with artificial diet were treated with aqueous test solutions prepared from 10′000 ppm DMSO stock solutions by pipetting. After drying, Plutella eggs were pipetted through a plastic stencil onto a gel blotting paper and the plate was closed with it. The samples were assessed for mortality and growth inhibition in comparison to untreated samples 8 days after infestation.
The following compounds gave an effect of at least 80% in at least one of the two categories (mortality or growth inhibition) at an application rate of 200 ppm: • P1, P2, P3, P4, P5, P7, P8, P9, P14, P15, P16, P17, P18, P21, P22, P23, P24, P25, P27, P28, P29, P30, P31, P32, P33, P34, P35, P36

[5] = system: Spodoptera littoralis (Egyptian Cotton Leaf Worm); test: Example B9: Spodoptera littoralis, cotton leaf discs sprayed, L1 larvae; conditions: foliar, 72 h, application rate of 200 ppm, five L1 larvae, 3 days after infestation, in comparison to untreated samples, read-out: control in at least one of the categories (mortality, anti-feedant effect, or growth inhibition)
Experimental: Example B9: Spodoptera littoralis (Egyptian Cotton Leaf Worm)
Cotton leaf discs were placed onto agar in 24-well microtiter plates and sprayed with aqueous test solutions prepared from 10′000 ppm DMSO stock solutions. After drying the leaf discs were infested with five L1 larvae. The samples were assessed for mortality, anti-feeding effect, and growth inhibition in comparison to untreated samples 3 days after infestation. Control of Spodoptera littoralis by a test sample is given when at least one of the categories mortality, anti-feedant effect, and growth inhibition is higher than the untreated sample.

[6] = system: Frankliniella occidentalis (Western Flower Thrips); test: Example B3: Frankliniella occidentalis feeding/contact activity, sunflower leaf discs; conditions: foliar, 168 h, application rate of 200 ppm, population of mixed ages, 7 days after infestation
Experimental: Example B3: Frankliniella occidentalis (Western Flower Thrips):Feeding/Contact Activity
Sunflower leaf discs were placed on agar in 24-well microtiter plates and sprayed with aqueous test solutions prepared from […] stock solutions. After drying the leaf discs were infested with a Frankliniella population of mixed ages. The samples were assessed for mortality 7 days after infestation.

[7] = system: Myzus persicae (Green Peach Aphid); test: Example B6: Myzus persicae feeding/contact activity, sunflower leaf discs; conditions: foliar, 144 h, application rate of 200 ppm, aphid population of mixed ages, 6 days after infestation
Experimental: Example B6: Myzus persicae (Green Peach Aphid): Feeding/Contact Activity
Sunflower leaf discs were placed onto agar in a 24-well microtiter plate and sprayed with aqueous test solutions prepared from 10′000 ppm DMSO stock solutions. After drying, the leaf discs were infested with an aphid population of mixed ages. The samples were assessed for mortality 6 days after infestation.

[8] = system: Myzus persicae (Green Peach Aphid); test: Example B8: Myzus persicae intrinsic activity, sucrose solution under Parafilm, 24-well; conditions: 120 h, test rate of 12 ppm, 5 days after infestation
Text: Example B8: Myzus persicae (Green Peach Aphid): Intrinsic Activity
Test compounds prepared from 10′000 ppm DMSO stock solutions were applied by pipette into 24-well microtiter plates and mixed with sucrose solution. The plates were closed with a stretched Parafilm. A plastic stencil with 24 holes was placed onto the plate and infested pea seedlings were placed directly on the Parafilm. The infested plate was closed with a gel blotting paper and another plastic stencil and then turned upside down. The samples were assessed for mortality 5 days after infestation.

[9] = system: Myzus persicae (Green Peach Aphid); test: Example B13: Myzus persicae, sucrose solution under Parafilm, 96-well; conditions: 120 h, application rate of 50 ppm, 5 days after infestation
Text: Example B13: Myzus persicae (Green Peach Aphid)
Test compounds prepared from 10′000 ppm DMSO stock solutions were applied by a liquid handling robot into 96-well microtiter plates and mixed with a sucrose solution. Parafilm was stretched over the 96-well microtiter plate and a plastic stencil with 96 holes was placed onto the plate. Aphids were sieved into the wells directly onto the Parafilm. The infested plates were closed with a gel blotting card and a second plastic stencil and then turned upside down. The samples were assessed for mortality 5 days after infestation.

[10] = system: Plutella xylostella (Diamondback Moth); test: Example B14: Plutella xylostella, artificial diet in 96-well plates, eggs; conditions: 216 h, application rate of 500 ppm, 9 days after infestation
Experimental: Example B14: Plutella xylostella (Diamondback Moth)
96-well microtiter plates containing artificial diet were treated with aqueous test solutions, prepared from 10′000 ppm DMSO stock solutions, by a liquid handling robot. After drying, eggs (˜30 per well) were infested onto a netted lid which was suspended above the diet. The eggs hatch and L1 larvae move down to the diet. The samples were assessed for mortality 9 days after infestation.
The following compounds gave an effect of at least 80% average mortality at an application rate of 500 ppm: • P2, P3, P5, P6, P7, P9, P15, P16, P17, P18, P20, P22, P24, P25, P30, P31, P32, P33, P38.

[11] = system: Myzus persicae (Green Peach Aphid); test: Example B7: Myzus persicae systemic activity, pea seedling roots in test solution; conditions: 144 h, test rate of 24 ppm, 6 days after placing seedlings into test solutions
Experimental: Example B7: Myzus persicae (Green Peach Aphid): Systemic Activity
Roots of pea seedlings infested with an aphid population of mixed ages were placed directly into aqueous test solutions prepared from 10′000 DMSO stock solutions. The samples were assessed for mortality 6 days after placing seedlings into test solutions.

CC(NC(=O)c1cc(C(F)(F)F)cc(C(F)(F)F)c1)c1nc(OCC(F)F)nn1-c1ncccn1 (stereo not shown) [Compound P29, N-[1-[5-(2,2-difluoroethoxy)-2-pyrimidin-2-yl-1,2,4-triazol-3-yl]ethyl]-3,5-bis(trifluoromethyl) benzamide]
≥ 80%: percent effect (mortality or growth inhibition) at 200 ppm [1] | percent effect (mortality or growth inhibition) at 200 ppm [2] | percent control (mortality, anti-feedant effect or growth inhibition) at 200 ppm [3] | percent effect (mortality or growth inhibition) at 200 ppm [4] | percent control (mortality, anti-feedant effect or growth inhibition) at 200 ppm [5]

CC(NC(=O)c1cc(C(F)(F)F)cc(C(F)(F)F)c1)c1nc(-c2ncno2)nn1-c1ncccn1 (stereo not shown) [Compound P1, N-[1-[5-(1,2,4-oxadiazol-5-yl)-2-pyrimidin-2-yl-1,2,4-triazol-3-yl]ethyl]-3,5-bis(trifluoromethyl)benzamide]
≥ 80%: percent effect (mortality or growth inhibition) at 200 ppm [2] | mortality at 200 ppm [6] | percent control (mortality, anti-feedant effect or growth inhibition) at 200 ppm [3] | percent effect (mortality or growth inhibition) at 200 ppm [4]

CC(c1nc(C(=O)N(C)C)nn1-c1ncccn1)N(C)C(=O)c1cc(C(F)(F)F)cc(C(F)(F)F)c1 (stereo not shown) [Compound P11, 5-[1-[[3,5-bis(trifluoromethyl)benzoyl]-methyl-amino]ethyl]-N,N-dimethyl-1-pyrimidin-2-yl-1,2,4-triazole-3-carboxamide]
≥ 80%: percent effect (mortality or growth inhibition) at 200 ppm [2] | percent control (mortality, anti-feedant effect or growth inhibition) at 200 ppm [3] | mortality at 200 ppm [7] | mortality at 12 ppm [8] | mortality at 50 ppm [9]

CC(NC(=O)c1cc(C(F)(F)F)cc(C(F)(F)F)c1)c1nc(OC(F)(F)F)nn1-c1ccccn1 (stereo not shown) [Compound P25, N-[1-[2-(2-pyridyl)-5-(trifluoromethoxy)-1,2,4-triazol-3-yl]ethyl]-3,5-bis(trifluoromethyl) benzamide]
≥ 80%: percent effect (mortality or growth inhibition) at 200 ppm [1] | percent effect (mortality or growth inhibition) at 200 ppm [2] | percent control (mortality, anti-feedant effect or growth inhibition) at 200 ppm [3] | percent effect (mortality or growth inhibition) at 200 ppm [4] | percent control (mortality, anti-feedant effect or growth inhibition) at 200 ppm [5] | mortality at 500 ppm [10]

CC(NC(=O)c1cc(C(F)(F)F)cc(C(F)(F)F)c1)c1nc(OC(F)F)nn1-c1ncccn1 (stereo not shown) [Compound P28, N-[1-[5-(difluoromethoxy)-2-pyrimidin-2-yl-1,2,4-triazol-3-yl]ethyl]-3,5-bis(trifluoromethyl)benzamide]
≥ 80%: percent effect (mortality or growth inhibition) at 200 ppm [1] | mortality at 200 ppm [6] | percent control (mortality, anti-feedant effect or growth inhibition) at 200 ppm [3] | percent effect (mortality or growth inhibition) at 200 ppm [4] | mortality at 12 ppm [8] | percent control (mortality, anti-feedant effect or growth inhibition) at 200 ppm [5]

COCc1nc(C(C)NC(=O)c2cc(C(F)(F)F)cc(C(F)(F)F)c2)n(-c2ncccn2)n1 (stereo not shown) [Compound P2, N-[1-[5-(methoxymethyl)-2-pyrimidin-2-yl-1,2,4-triazol-3-yl]ethyl]-3,5-bis(trifluoromethyl)benzamide]
≥ 80%: percent effect (mortality or growth inhibition) at 200 ppm [1] | percent effect (mortality or growth inhibition) at 200 ppm [2] | percent effect (mortality or growth inhibition) at 200 ppm [4] | mortality at 24 ppm [11] | mortality at 12 ppm [8] | percent control (mortality, anti-feedant effect or growth inhibition) at 200 ppm [5] | mortality at 50 ppm [9] | mortality at 500 ppm [10]

CC(NC(=O)c1cc(C(F)(F)F)cc(C(F)(F)F)c1)c1nc(C=O)nn1-c1ncccn1 (stereo not shown) [Compound P38, N-[1-(5-formyl-2-pyrimidin-2-yl-1,2,4-triazol-3-yl)ethyl]-3,5-bis(trifluoromethyl) benzamide]
≥ 80%: percent effect (mortality or growth inhibition) at 200 ppm [2] | mortality at 12 ppm [8] | mortality at 50 ppm [9] | mortality at 500 ppm [10]

CC(NC(=O)c1cc(Cl)cc(C(F)(F)F)c1)c1nc(Br)nn1-c1ncccn1 (stereo not shown) [Compound P33, N-[1-(5-bromo-2-pyrimidin-2-yl-1,2,4-triazol-3-yl)ethyl]-3-chloro-5-(trifluoromethyl) benzamide]
≥ 80%: percent effect (mortality or growth inhibition) at 200 ppm [1] | percent effect (mortality or growth inhibition) at 200 ppm [2] | percent control (mortality, anti-feedant effect or growth inhibition) at 200 ppm [3] | percent effect (mortality or growth inhibition) at 200 ppm [4] | percent control (mortality, anti-feedant effect or growth inhibition) at 200 ppm [5] | mortality at 50 ppm [9] | mortality at 500 ppm [10]

CC(NC(=O)c1cc(C(F)(F)F)cc(C(F)(F)F)c1)c1nc(Br)nn1-c1ncccn1 (stereo not shown) [Compound P4, N-[1-(5-bromo-2-pyrimidin-2-yl-1,2,4-triazol-3-yl)ethyl]-3,5-bis(trifluoromethyl) benzamide]
≥ 80%: percent effect (mortality or growth inhibition) at 200 ppm [1] | mortality at 200 ppm [6] | percent control (mortality, anti-feedant effect or growth inhibition) at 200 ppm [3] | percent effect (mortality or growth inhibition) at 200 ppm [4] | mortality at 200 ppm [7] | mortality at 12 ppm [8] | percent control (mortality, anti-feedant effect or growth inhibition) at 200 ppm [5]
